# Assay results reported in article PMC7725824, “Fused isoselenazolium salts suppress breast cancer cell growth by dramatic increase in pyruvate-dependent mitochondrial ROS production” (Scientific Reports, 2020).
# Experiments:
# MCF-7 = experiment: Cytotoxicity assay (MTT), MCF-7; type: cell-based, human; conditions: Homo sapiens, MCF7; breast cancer cell line; MTT, 48 h; mean ± S.D., 3 experiments; read-out: Cytotoxicity, IC50, MCF-7
# Procedure: (§1) MCF-7 (human breast adenocarcinoma, estrogen-positive) and 4T1 (mouse carcinoma), as breast cancer cell lines, and H9C2 (rat cardiomyoblasts), NIH 3T3 (mouse fibroblasts), HEKa (primary human epidermal keratinocytes), MDCK (Madin-Darby Canine Kidney) cells, and A7r5 (rat vascular smooth muscle cells), as normal cell lines, were obtained from the American Type Culture Collection [ATCC] collection for use in the current study. All cell lines were cultured in Dulbecco's modified Eagle's medium (DMEM) containing 10% fetal bovine serum (FBS) and 4 mM L-glutamine at 37 °C and 5% CO2.
# (§2) Cell viability was assessed by the addition of 3-(4,5-dimethylthiazol-2-yl)-2,5-diphenyltetrazolinium bromide (MTT). Briefly, cells were seeded (2–6 × 10^4 cells/ml) in 96-well plates and allowed to attach for 24 h. Solutions of test compounds were prepared and serially diluted to obtain the appropriate concentrations. The cells were treated with the test compounds at different concentrations (0.032–100 µM) and incubated for 48 h at 37 °C and 5% CO2. Then, the culture medium was removed, and medium containing 0.2 mg/ml MTT was added. After 3 h (37 °C, 5% CO2), the MTT-containing medium was removed, and 200 μl of dimethyl sulfoxide (DMSO) was immediately added to each sample. The absorbance was assessed at 540 nm using a Tecan multiplate reader Infinite 1000 (Austria). The half-maximal inhibitory concentration (IC50) of each compound was calculated using Graph Pad Prism 3.0.
# 4T1 = experiment: Cytotoxicity assay (MTT), 4T1; type: cell-based, mouse; conditions: Mus musculus, 4T1; breast cancer cell line; MTT, 48 h; mean ± S.D., 3 experiments; read-out: Cytotoxicity, IC50, 4T1
# Procedure: as §1, §2
# [1] = Cytotoxicity assay (MTT), 3T3; type: cell-based, mouse; conditions: mouse, NIH 3T3 cells (fibroblasts), normal cell line, mean ± S.D., 3 experiments
# Procedure: as §1, §2
# [2] = Cytotoxicity assay (MTT), MDCK; type: cell-based, Canine; conditions: dog, MDCK cells, normal cell line, mean ± S.D., 3 experiments
# Procedure: as §1, §2
# [3] = Cytotoxicity assay (MTT), A7r5; type: cell-based, rat; conditions: rat, A7r5 cells (vascular smooth muscle cells), normal cell line, mean ± S.D., 3 experiments
# Procedure: as §1, §2
# MCF-7 cells [4] = experiment: Fluorometric measurement of NMN level; type: cell-based, human; conditions: 2 μM, 10 min, vs control
# Procedure: For fluorometric measurements of NMN, a previously described method was used, with minor modifications. […] The cells were washed with PBS and then lysed by adding 200 μl of 1 M HClO4 to each well and incubating at 4 °C for 20 min. The cells were harvested by scraping and transferred to a tube. The extracts were neutralized with 100 μl of 2 M KOH for 5 min at room temperature and 50 μl of 0.1 M bicine (pH 7.4) was added. The samples were centrifuged at 14 000 × g for 10 min at 4 °C, and the supernatant was collected for further analysis. The protein concentration in each sample was determined using a Bio-Rad protein assay kit. […] The reaction was incubated for 2 min at 4 °C, after which 45 μl of 88% formic acid was added, and the samples were incubated for another 10 min at 37 °C on a shaker. The fluorescence was measured using a Tecan multiplate reader Infinite 1000 (Austria) with excitation at 382 nm and emission at […].
# MCF-7 cells [5] = experiment: NAD+/NADH assay kit measurement; type: cell-based, human; conditions: 2 μM, 10 min, vs control
# Procedure: The NAD^+/NADH ratio in the MCF-7 cells exposed to the test compounds (2 μM) for 10 min was measured using an NAD^+/NADH assay kit (Abcam, ab65348) according to the manufacturer's instructions.
# DOPC liposomes = experiment: Isothermal titration calorimetry with DOPC liposomes; type: binding; conditions: 25 °C, 200 µM total lipid
# Procedure: (§3) The obtained large multilamellar liposomes were sonicated in a bath-type sonicator (Cole Parmer Ultrasonic Cleaner 8891CPX (USA)) at room temperature for 30 min and then extruded (LiposoFast-Basic, Avestin) through a 100 nm polycarbonate filter 21 times. The quality of the resulting small unilamellar vesicles was determined by dynamic light scattering (DLS) (Zetasizer Nano ZSP, Malvern Panalytical Ltd., UK).
# (§4) The experiments were carried out using an isothermal titration calorimeter (MicroCal iTC200, Malvern Panalytical Ltd., UK). To carry out the titration, the injection syringe was filled with a solution of compound 6 (100 µM), and the reaction cell was filled with liposome dispersion (200 µM of total lipid). The experiments were performed at 25 and 37 °C with a stirring speed of 750 rpm. […] The data consisted of a series of heat flows as a function of time, which were collected automatically and analyzed by Origin 7 software (OriginLab Corporation, Northampton, USA, www.originlab.com, 2002). The changes in enthalpy (ΔH) due to the interactions between 6 and the liposome dispersions were recorded, and then stoichiometry (N), the association constant (KA), the dissociation constant (KD), entropy (ΔS) and the Gibbs free energy (ΔG) were calculated. The obtained sigmoidal titration curves were evaluated assuming independent saturable binding sites in the outer vesicle interface. […]
# [6] = system: CL/DOPC (1:3) vesicles (cardiolipin); experiment: Isothermal titration calorimetry with CL/DOPC liposomes; type: binding; conditions: 25 °C
# Procedure: as §3, §4
smiles,measurement,setting,value
"OC1(c2[se][n+]3ccsc3c2Br)CCCCC1 [Compound 6, 3-bromo-2-(1-hydroxycyclohexyl)[1,2]selenazolo[2,3-b]thiazolium chloride]",IC50,MCF-7,3.23 ± 0.03 µM
same,IC50,4T1,1.7 ± 0.2 µM
same,IC50 at 48 h,[1],7.4 ± 0.8 µM
same,IC50 at 48 h,[2],6.58 ± 0.33 µM
same,IC50 at 48 h,[3],1.97 ± 0.27 µM
same,decrease in NMN levels,MCF-7 cells [4],26%
same,decrease in NAD+ level,MCF-7 cells [5],25%
same,decrease in NAD+/NADH ratio,MCF-7 cells [5],without affecting
same,decrease in NADH level,MCF-7 cells [5],without affecting
same,ITC binding to DOPC liposomes,DOPC liposomes,no signs of binding
same,ITC isoselenazolium cation–CL interaction,[6],decrease in enthalpy
